Square brackets hold non-standard residues; d marks the D form. Peptide text beside a SMILES is read from it. * marks the point of attachment. Dolaproine = CO[C@@H]([C@@H]1CCCN1)[C@@H](C)C(=O)O; Hexanoyl(6-maleimido) = O=C1C=CC(=O)N1CCCCCC(=O)*; Dil = CC[C@H](C)[C@H](NC)[C@@H](CC(=O)O)OC; NMeV = CN[C@H](C(=O)O)C(C)C
How the values were obtained:
PHTX-21c s.c. xenograft [1] = experiment: MLN0264 and 5-Fluorouracil in PHTX-21C s.c. xenografts (Study CPGC-11-EF01); type: in vivo, CB-17 SCID mice; settings: for dAUC: 4 days off, reference vehicle
Method: (§1) Tumor volume was calculated using the formula: […]

PHTX-09c s.c. xenograft = experiment: 5F9 vcMMAE and CPT-11 in PHTX-09C s.c. xenografts (Study CPGC-11-EF07)
PHTX-21c s.c. xenograft [2] = experiment: MLN0264 and CPT-11 in PHTX-21C s.c. xenografts (Study CPGC-11-EF04); settings: PHTX-21c
PHTX-11c s.c. xenograft = experiment: MLN0264 and CPT-11 in PHTX-11c s.c. xenografts (Study CPGC-12-EF01); settings: W1-W3
PHTX-17c s.c. xenograft = experiment: MLN0264 and CPT-11 in PHTX-17C s.c. xenografts (Study CPGC-11-EF06); type: in vivo, CB-17 SCID mice; settings: PHTX-17c
Method: as §1

293 GCC#2 tumors = experiment: Efficacy study with auristatin conjugates in 293 GCC#2 tumors, q7d×4; type: in vivo, SCID mice; settings: 150 μg/kg iv q7d×4
Method: 293 GCC#2 tumor-bearing SCID mice were treated with 5F9 conjugates with vc MMAE, vcMMAF or mcMMAF at three doses in comparison with 209 conjugates of these toxins or with free toxins or vehicle control. Doses were administered iv on a q7d×4 schedule. Tumors were harvested at days 3, 7, 10, 13 and 17. […] Table 18 provides a summary of the results (TGI=tumor growth inhibition, T/C=treatment/control, TGD=tumor growth delay, CR/PR=complete response/partial response; p value=measure to judge statistical significance, NS=not significant).

[3] = PHTX-09c, CPT-11 10 mg/kg D1, 2 ×3 weeks
[4] = CPT-11 10 mg/kg D1, D2 per week
[5] = CPT-11 15 mg/kg D1, D2 per week
[6] = CPT-11 10 mg/kg 2 d on 5 off i.v.
[7] = CPT-11 15 mg/kg 2 d on 5 off i.v.

Question: Which results are given for O=c1[nH]cc(F)c(=O)[nH]1 [5-FU, 5-Fluorouracil, reference compound]?
Answer: single agent anti-tumor activity (PHTX-21c s.c. xenograft [1]; PHTX-21c, 15 mg/kg and 25 mg/kg, 3 day on/4 day off): relatively low anti-tumor activity; dAUC (PHTX-21c s.c. xenograft [1]; group E: 5-Fu 15 mg/kg 3 days on): 44.1%; dAUC (PHTX-21c s.c. xenograft [1]; group F: 5-Fu 25 mg/kg 3 days on): 52.6%

Question: With CCc1c2c(nc3ccc(OC(=O)N4CCC(N5CCCCC5)CC4)cc13)-c1cc3c(c(=O)n1C2)COC(=O)[C@]3(O)CC [CPT-11, irinotecan] as the compound, how does the single agent activity (PHTX-09c s.c. xenograft; PHTX-09c (FIGS. 8B and 8C)) read?
Answer: The single agent activity was “moderate”.

Question: And the “Days to 1000 mm^3” value (PHTX-09c s.c. xenograft; [3])?
Answer: The value was >23 days.

Question: What about the T/C (PHTX-09c s.c. xenograft; [3]) of the same compound?
Answer: The T/C was 0.4.

Question: What about the TGI (PHTX-09c s.c. xenograft; [3]) of the same compound?
Answer: Its TGI is 60.3%.

Question: And the “Days to 1000 mm^3” value (PHTX-21c s.c. xenograft [2]; [4])?
Answer: The value was >15 days.

Question: What about the T/C (PHTX-21c s.c. xenograft [2]; [4]) of the same compound?
Answer: Its T/C is 0.22.

Question: And the TGI (PHTX-21c s.c. xenograft [2]; [4])?
Answer: The TGI was 78.4%.

Question: What about the “Days to 1000 mm^3” value (PHTX-21c s.c. xenograft [2]; [5]) of the same compound?
Answer: The value was >15 days.

Question: What about the T/C (PHTX-21c s.c. xenograft [2]; [5]) of the same compound?
Answer: The T/C was 0.16.

Question: And the TGI (PHTX-21c s.c. xenograft [2]; [5])?
Answer: The TGI was 84.4%.

Question: What about the “Days to 1000 mm^3” value (PHTX-21c s.c. xenograft [2]; CPT-11 30 mg/kg D1 QW) of the same compound?
Answer: The value was >15 days.

Question: What about the T/C (PHTX-21c s.c. xenograft [2]; CPT-11 30 mg/kg D1 QW) of the same compound?
Answer: The T/C was 0.37.

Question: And the TGI (PHTX-21c s.c. xenograft [2]; CPT-11 30 mg/kg D1 QW)?
Answer: Its TGI is 62.8%.

Question: What about the “single agent anti-tumor activity” value (PHTX-21c s.c. xenograft [2]; the two lower doses administered (10 and 15 mg/kg)) of the same compound?
Answer: The value was “moderate to high single agent activity”.

Question: What about the “Days to 1000 mm^3” value (PHTX-11c s.c. xenograft; [6]) of the same compound?
Answer: The value was >18 days.

Question: What about the T/C (PHTX-11c s.c. xenograft; [6]) of the same compound?
Answer: The T/C was 0.34.

Question: What about the TGI (PHTX-11c s.c. xenograft; [6]) of the same compound?
Answer: Its TGI is 65.9%.

Question: And the “Days to 1000 mm^3” value (PHTX-11c s.c. xenograft; [7])?
Answer: The value was >18 days.

Question: And the T/C (PHTX-11c s.c. xenograft; [7])?
Answer: Its T/C is 0.31.

Question: What about the TGI (PHTX-11c s.c. xenograft; [7]) of the same compound?
Answer: Its TGI is 69.2%.

Question: And the “Days to 1000 mm^3” value (PHTX-11c s.c. xenograft; CPT-11 30 mg/kg (D1 QW) i.v.)?
Answer: The value was >18 days.

Question: What about the T/C (PHTX-11c s.c. xenograft; CPT-11 30 mg/kg (D1 QW) i.v.) of the same compound?
Answer: Its T/C is 0.39.

Question: And the TGI (PHTX-11c s.c. xenograft; CPT-11 30 mg/kg (D1 QW) i.v.)?
Answer: Its TGI is 61.1%.

Question: And the “Days to 1000 mm^3” value (PHTX-17c s.c. xenograft; CPT-11 10 mg/kg QD 2on 5off)?
Answer: The value was >17 days.

Question: And the T/C (PHTX-17c s.c. xenograft; CPT-11 10 mg/kg QD 2on 5off)?
Answer: The T/C was 0.28.

Question: And the TGI (PHTX-17c s.c. xenograft; CPT-11 10 mg/kg QD 2on 5off)?
Answer: Its TGI is 71.7%.

Question: What about the “Days to 1000 mm^3” value (PHTX-17c s.c. xenograft; CPT-11 15 mg/kg 2 on 5off) of the same compound?
Answer: Its value is >17 days.

Question: And the T/C (PHTX-17c s.c. xenograft; CPT-11 15 mg/kg 2 on 5off)?
Answer: The T/C was 0.22.

Question: What about the TGI (PHTX-17c s.c. xenograft; CPT-11 15 mg/kg 2 on 5off) of the same compound?
Answer: The TGI was 77.7%.

Question: What about the “Days to 1000 mm^3” value (PHTX-17c s.c. xenograft; CPT-11 30 mg/kg QW) of the same compound?
Answer: Its value is >17 days.

Question: What about the T/C (PHTX-17c s.c. xenograft; CPT-11 30 mg/kg QW) of the same compound?
Answer: The T/C was 0.4.

Question: What about the TGI (PHTX-17c s.c. xenograft; CPT-11 30 mg/kg QW) of the same compound?
Answer: Its TGI is 60.5%.

Question: Which TGI (293 GCC#2 tumors) does the source give for CC[C@H](C)[C@@H]([C@@H](CC(=O)N1CCC[C@H]1[C@H](OC)[C@@H](C)C(=O)N[C@@H](Cc1ccccc1)C(=O)O)OC)N(C)C(=O)[C@@H](NC(=O)[C@H](C(C)C)N(C)C(=O)CCCCCN1C(=O)C=CC1=O)C(C)C [Free mcMMAF, reference compound] ({Hexanoyl(6-maleimido)}-[NMeV]V[Dil][Dolaproine]F-OH) here?
Answer: Its TGI is −3.4.

Question: And the CR/PR (293 GCC#2 tumors; complete response/partial response)?
Answer: Its CR/PR is 0.

Question: What about the T/C (293 GCC#2 tumors; treatment/control) of the same compound?
Answer: The T/C was 1.03.

Question: And the TGD (293 GCC#2 tumors; tumor growth delay)?
Answer: Its TGD is −1.3.

From patent US20140356383A1, “ADMINISTRATION OF AN ANTI-GCC ANTIBODY-DRUG CONJUGATE AND A DNA DAMAGING AGENT IN THE TREATMENT OF CANCER” (priority 2013, published 2014)
